Results on ten compounds are retold here after patent US20090182014A1, “INSECTICIDAL COMPOSITIONS COMPRISING COMPOUNDS HAVING INHIBITORY ACTIVITY VERSUS ACYL COA: CHOLESTEROL ACYLTRANSFERASE OR SALTS THEREOF AS EFFECTIVE INGREDIENTS” (priority 2003, published 2009).

Assay [1] has as its system acyl CoA:cholesterol acyltransferase (ACAT). Nature of the assay: Assay for ACAT inhibitory activity using hepatic microsomes, cholesterol and 14C-labeled oleoyl-CoA. Type of assay: biochemical. As to the method: In the method, ACAT activity was determined using hepatic microsomes as a source of ACAT with substrates of cholesterol and ^14C-labeled oleoyl-CoA. The radioactivity of the reaction product cholesterol ester was estimated as the ACAT activity.
In detail, a reaction mixture was prepared as follows. […] To stabilize enzyme reaction, bovine serum albumin was added to the mixture to a final concentration of 30 μM. Then, a sample dissolved in DMSO or methanol was added to the mixture. The resulting reaction mixture was preincubated at 37° C. for 30 min. The enzyme reaction was then initiated by adding [1-^14C]-oleoyl Coenzyme A solution to a final concentration of 0.04 μCi. After 30 min of incubation at 37° C., the reaction was stopped by addition of 1 ml of an isopropanol-heptane solution. Then, 0.6 ml of n-heptane and 0.4 ml of KPB buffer were added to the terminated reaction mixture. The mixture was well mixed and allowed to stand at room temperature for 2 min. After phase separation, 200 μl of the supernatant was put into a scintillation vial. After adding 4 ml of a scintillation cocktail (Lipoluma, Lumac Co.) to the vial, the amount of synthesized cholesteryl oleate was measured with a scintillation counter (Packard Delta-200). The inhibitory activity versus ACAT was calculated according to the following Equation 1:
Inhibitory activity (%)=[1−(T−B/C−B)]×100
T: cpm in a test reaction mixture that contains a compound of the present invention along with an enzyme source;

Assay [2] relates to Tenebrio molitor L larvae. Nature of the assay: Diet (wheat bran) assay against Tenebrio molitor L larvae: larval weight, growth, killing. Type of assay: in vivo. Conditions: 1 mg mixed with 10 g wheat bran; for larval weight-reducing effect in T. molitor L larvae (FIG. 8): larval weight on day 3 and 7, compared with control. As to the method:
Among the present compounds with an ACAT inhibitory activity, the phenylpyropene A, B and C (Formulas 2 to 4) were tested for weight-reducing effect in larval insects. In this test, larvae of Tenebrio molitor L. was used as an experimental insect, which was obtained from the insect research lab, KRIBB, Korea. Healthy second-instar larvae (10-12 mm) of Tenebrio molitor L was selected 24 hrs before performing this test. Each of the compounds of Formulas 2 to 4 was dissolved in 10% acetone to a final concentration of 1 mg/ml and serially diluted. 1 ml of the diluted compound solution was mixed with […] of wheat bran commonly used as a diet. The resulting mixture was put into a glass petri dish (90×20 mm), and the petri dish was placed in a desiccator for about 2 hrs under pressure to remove the organic solvent. After being weighed, 10 highly mobile larvae of T. molitor L for each test set were placed in a petri dish (87×15 mm) with a filter paper disk, together with the mixture of the present compound and wheat bran. Then, the larvae were grown in at 25±±1° C. under 40-45% relative humidity with a 16-hour light/8-hours dark cycle. After 72 hrs, larval weight and diet intake were recorded every three days. This assay was performed on three replicates, and a control group was treated with 10% acetone.

Assay [3] deals with Plutella xylostella L larvae. Nature of the assay: Leaf-disk bioassay against Plutella xylostella L larvae. Type of assay: in vivo. Conditions: treated with 0.001 to 1 mg; investigated at intervals of 24 hrs; compared with control. As to the method: Larvae of Plutella xylostella L was used as an experimental insect in this test, which was obtained from the Insect Research Lab, Korean Research Institute of Bioscience and Biotechnology (KRIBB), Oun-dong, Yusong-ku, Taejon, Korea. After being weighed accurately, a proper amount of the present compounds with an ACAT inhibitory activity were was dissolved in acetone, mixed with nine volumes of a 100 ppm Triton X-100 stock solution, and serially diluted, thus giving active compound solutions. A diet for the growth of the P. xylostella L larvae was prepared, as follows: leaves of cabbages with uniform growth were cut into leaf disks (3.0 cm in diameter), dipped in the active compound solutions for 30 sec, and dried in a hood for 60 min. Each of the active compound-treated leaf disks was put in a petri dish (55×20 mm) with a filter paper disk. Then, 10 second-instar larvae of P. xylostella L were placed on each leaf disc using a soft brush with caution not to damage the larvae, and grown in an incubator (25±1° C., 40-45% relative humidity, 16L:8D). After 24 hrs and 48 hrs, mortality was recorded. […] This leaf-disk bioassay was performed on three replicates, and LC50 (50% lethal concentration) was calculated by the Probit method developed by Finney (1982).

The mark [4] stands for this setting: hepatic microsomes as source of ACAT.
Where [5] appears, read: calculated from the μg/ml value and molecular weight.

In brackets after ≈: the same amount, converted by molar mass.

`CCCCCCCC/C=C\CCCCCCCC(=O)Nc1c(OC)cc(OC)cc1OC` [Formula 7]: the ACAT inhibitory activity in assay [1] (concentration 20 μg/ml) worked out at 96.6%; in assay [1] (concentration 100 μg/ml), 97.8%.
For `CC(C)c1cccc(C(C)C)c1OC(=O)NS(=O)(=O)Oc1c(C(C)C)cccc1C(C)C` [Formula 8], the results for the ACAT inhibitory activity in assay [1] (concentration 20 μg/ml) and in assay [1] (concentration 100 μg/ml) were 84.5% and 93.8%, respectively.
The corresponding values for `Cc1cc(Cc2cc(C)cc(C(C)(C)C)c2O)c(O)c(C(C)(C)C)c1` [Formula 9] are 93.4% and 98.4%.
The matching figures for `O=C(/C=C/C=C/c1ccc2c(c1)OCO2)N1CCCCC1` [Formula 10]: 17.6% and 82.0%.
The matching figures for `CCCCCCCNC(=O)CCCCSC1NC(c2ccccc2)C(c2ccccc2)N1` (stereo not shown) [Formula 11]: 84.8% and 89.6%.
One may read the IC50 as the point on the concentration scale where inhibition reaches its midpoint. Take `CC(=O)OCC1(C)C2C[C@H](OC(C)=O)[C@@]3(C)Oc4cc(-c5ccccc5)oc(=O)c4[C@H](O)C3[C@@]2(C)CC[C@@H]1OC(C)=O` (stereo partly shown) [phenylpyropene A]: the IC50 in assay [1] (calculated from the ng/ml value and molecular weight) is 0.086 µM. In addition, the “IC50 (compound concentration to inhibit by 50% of ACAT activity)” value in assay [1] (setting [4]) worked out at 0.5 µg/mL. For the same compound, in assay [2], the “larval growth inhibition in T. molitor L larvae (FIG. 9)” value (“larval growth inhibition” for short) is listed as “larval growth inhibition was found” and the “larval weight-reducing effect in T. molitor L larvae (FIG. 8)” value (“larval weight-reducing effect” below) is on record as “lasting larval weight-reducing effect”.
For the compound `CC(=O)OCC1(C)C(OC(C)=O)CC[C@@]2(C)C1CC[C@@]1(C)Oc3cc(-c4ccccc4)oc(=O)c3CC21` (stereo partly shown) [phenylpyropene B], the IC50 in assay [1] (setting [5]) is 12.8 µM. Also, the “IC50 (ACAT activity)” value in assay [1] (setting [4]) is 6.5 µg/mL (≈ 12.8 µM). The “larval weight-reducing effect” value in assay [2] is “lasting larval weight-reducing effect”.
For the compound `CC(=O)OC1CC[C@@]2(C)C(CC[C@@]3(C)Oc4cc(-c5ccccc5)oc(=O)c4CC23)C1(C)C` (stereo partly shown) [phenylpyropene C], in assay [1] (setting [5]), the IC50 was 16 µM. Also, in assay [1] (setting [4]), the “IC50 (ACAT activity)” value was 7.2 µg/mL (≈ 16 µM). In assay [2], the “larval growth inhibition” value was “larval growth inhibition was found” and the “larval weight-reducing effect” value is “lasting larval weight-reducing effect”.
On to `CC(=O)OC[C@@]1(C)[C@@H]2C[C@H](OC(C)=O)[C@@]3(C)Oc4cc(-c5cccnc5)oc(=O)c4[C@H](O)[C@@H]3[C@@]2(C)CC[C@@H]1OC(C)=O` [pyripyropene A], for which the “insecticidal effect against P. xylostella L larvae (FIG. 6)” value in assay [3] is reported as “lasting insecticidal effect in a dose-dependant manner”. Moreover, in assay [2], the “T. molitor L insect killed in the larval and pupa stages” value is “most of the T. molitor L insect was killed in the larval and pupa stages”; the “larval growth inhibition” value was “larval growth inhibition was found”.
Consider pheophorbide a, for which the “larval growth inhibition” value in assay [2] is listed as “larval growth inhibition was found”.
